These results are taken from patent US9290529B2, “Carbonic anhydrase inhibitors and method of their production” (USTAV ORGANICKE CHEMIE A BIOCHEMIE AKADEMIE VED CESKE …, priority 2011, dated 2016).

Experiment [1] addresses T1, human carbonic anhydrase II (hCA II) (Homo sapiens, UniProt P00918).
T1 construct: purchased Sigma Aldrich C6165
The experiment in a line: Colorimetric carbonic anhydrase inhibition assay (CO2 hydration, phenol red), hCA II. In kind it is biochemical. Conditions: 0° C., HEPES pH 7.0. The protocol: (§1) The compounds were assayed for inhibition activity of two isoforms of human carbonic anhydrase: hCA II and hCA IX. The human carbonic anhydrase II (HCA II) was purchased from Sigma Aldrich (Cat. No. C6165) in the form of lyophilized protein, which was dissolved before use in 10 mmol·l^−1 HEPES pH 7.0 to a concentration of 300 μmol·l^−1 and further diluted as required. Human carbonic anhydrase IX (HCA IX) was prepared by recombinant expression system in insect (Drosophila expression system, Invitrogen). […] This protein was further purified from media by chelating chromatography carrier His-Select Nickel Affinity Gel (Sigma, Cat No. P6611) and gel chromatography (Superdex 200 GL 30/300, GE Healthcare) according to the manufacturer's recommendations.
(§2) The principle of the method is based on measuring the rate of acidification of the solution that is observed as the color-shift of the acid-base-indicator (fenol red). The reaction was conducted in a glass tube placed in an ice bath (0° C., all stock solutions and enzymes were kept at the same temperature). […] This was followed by a CO2 saturation (stream flow 50 ml/min.) using a needle (18 G) up to color transition of fenol-red from red to yellow (typically 60 seconds by default). […] End point of reaction was determined by visual comparison with reference tube containing acid-base indicator (0.01% (wt./vol.) Fenol-red) and the pH adjusted to 7.0. […] Molar activity was calculated according to the formula:
(§3) [formula] where tB is the time of negative control without enzyme and tS is the time measured with an enzyme sample (and inhibitor), nprot is the number of moles of protein present in the sample. The value of IC50 for the inhibitor concentration corresponds inhibitor contraction required to decrease the specific activity to half of the value of non-inhibited enzyme. Selectivity towards CA IX inhibitor was calculated as the ratio of IC50 values for inhibition of HCA II against the value of IC50 for inhibition CA IX enzyme.

Experiment [2] addresses T2, human carbonic anhydrase IX (hCA IX) (Homo sapiens, UniProt Q16790).
T2 construct: Construct contained the extracellular CA domain (amino acid residues 139-390) cloned into the pMT/BiP/V5-His vector; His tag (from vector pMT/BiP/V5-His) (C); BiP secretion signal (from vector pMT/BiP/V5-His) (N); made in house; host or cells: Drosophila expression system (Invitrogen), insect cells, secreted into SF 900 II medium
The experiment can be described thus: Colorimetric carbonic anhydrase inhibition assay (CO2 hydration, phenol red), hCA IX. Conditions: for IC50: 0° C., HEPES pH 7.0, recombinant extracellular CA domain, read-out: IC50 (hCA IX); for Selectivity to hCA IX IC50 (hCA II)/IC50 (hCA IX): ratio of IC50 values. In kind it is biochemical. On the procedure: as §1, §2, §3

Another experiment deals with CCRF-CEM cells. The experiment can be described thus: Flow cytometric measurement of intracellular pH (pHi), CA IX negative CCRF-CEM. Particulars: 50 μM acetazolamide, 24 hour incubation, control 7.362. It is filed as cell-based, human. On the procedure:
(§4) The effect of carborane CAIX (carbonic anhydrase IX) inhibitors was evaluated on colorectal cancer cell line HCT116 expressing CAIX enzyme versus CA IX negative cell line of T-lymphoblastic leukemia CCRF-CEM. Acetazolamide, a known inhibitor of CAIX, was used as a standard. HCT116/CCRF-CEM cells were cultivated in McCoy/RPMI Media supplemented with 10% FCS and antibiotics and seeded at high density ([…] per 3.5 cm dish) to induce pericellular hypoxia and thus stimulate CA IX expression. Measurement of pHi was assessed as described in Cianchi et al. [Cianchi F., et al. Selective inhibition of carbonic anhydrase IX decreases cell proliferation and induces […] apoptosis in human cancer cells. The Journal of Pharmacology and Experimental Therapeutics, 2010, Vol. 334, No. 3, 710-719].
(§5) […] The pHi was measured by flow cytometry in cell cultures pretreated with 10 μM of pH sensitive probe carboxyseminaphtorhoda-fluor-1-acetoxymethyl ester (SNARF, Invitrogen, CA) for 15 min at 37° C. After incubation, the cells were washed twice with PBS. Because the addition of bicarbonate can affect pHi, all incubation and cell washes were performed in bicarbonate-free buffer. SNARF was excited at 488 nm and emitted at 580 and 640 nm. The ratio of the emission wavelengths at 640/580 nm was then used to estimate the pHi from a calibration curve. The calibration curve was prepared by nigericin clamp technique. In this method, after the SNARF labeling of untreated cells, aliquots of cell suspensions were re-suspended in a high potassium containing buffer at specific pH (usually 6.8, 7.0, 7.2, 7.4, 7.6 and 7.8). The cell suspensions were then clamped at a specific pH value by the addition of 0.03 μM nigericin (Sigma-Aldrich). Nigericin is a ionophore that allows the exchange of H for K ions, thus abolishing the pH gradient across the cell membrane. When the internal and external K concentrations are approximately equal, the pH rapidly equilibrates to the pH of the bathing solution. A total of 20,000 events were acquired on a FACS ARIA II flow cytometer (Becton. Dickinson) for further analysis.
(§6) The fluorescent ratio values (640/580 nm) calculated for each pH point were further used to construct calibration curve in Prism software (GraphPad Software, Inc., San Diego, Calif.), from which the pHi values in treated cells were determined (Table 3).
In general terms: In flow cytometry, cells or beads pass a laser one at a time.

Another experiment has as its system HCT116 cells. The experiment can be described thus: Flow cytometric measurement of intracellular pH (pHi), HCT116 expressing CAIX. In kind it is cell-based, human. The protocol: as §4, §5, §6

One may read the IC50 as the midpoint of a concentration-inhibition curve. “1,1′-bis(3-sulfamoylpropyl)-3,3′-commo-bis(1,2-dicarba-3-cobalta(III)-closo-dodecabor)ate (1-) [CB-25]”: the values for the 50% inhibitory concentration (IC50) in experiment [1] and in experiment [2] were 40 nM and 4 nM, respectively. For the same molecule, the “Selectivity to hCA IX IC50 (hCA II)/IC50 (hCA IX)” value (from here on “Selectivity to hCA IX IC50”) in experiment [2] was 10.

Take “1-(2-sulfonamidethyl)-1,2-dicarba-closo-dodecaborane [CB-23]”: the IC50 in experiment [1] was determined as 400 nM; in experiment [2], 380 nM. Besides, in experiment [2], the “Selectivity to hCA IX IC50” value worked out at 1.05.

In the case of “1-(3-sulfamoyl-propyl)-3,3′-commo-(decahydro-1,2-dicarba-3-cobalta(III)-undecahydro-1′,2″-dicarba-closo-dodecabor)ate (1-), sodium salt dihydrate [CB-26]”, half-maximal inhibition in experiment [1] (IC50) was put at 110 nM. In addition, in experiment [2], the IC50 was found to be 14 nM and the “Selectivity to hCA IX IC50” value is on record as 7.9.

In the case of “1-ethylenenesulfamide-3,3′-commo-bis(1,2-dicarba-3-cobalta(III)-closo-dodecabor)ate (1-) [CB-30]”, in experiment [1], the half-maximal inhibitory concentration (IC50) was determined as 570 nM. Besides, in experiment [2], the IC50 was 0.7 nM and the “Selectivity to hCA IX IC50” value was determined as 814.

As for “1-propylenesulfamide-3,3′-commo-bis(1,2-dicarba-3-cobalta(III)-closo-dodecabor)ate (1-) [CB-29]”, in experiment [1], the midpoint of inhibition, the IC50, lay at 3900 nM. Moreover, in experiment [2], the IC50 came out at 22 nM and the “Selectivity to hCA IX IC50” value is on record as 177.

“9-sulfamide-10′-amine-2,2′-commo-(1,7,9-tricarba-1′,7′, 10′-tricarba-2-ferra(H)-closo-dodekabor)ane [CB-11]” gave an IC50 in experiment [1] of 83900 nM. Besides, in experiment [2], the IC50 amounted to 1500 nM and the “Selectivity to hCA IX IC50” value is recorded as 55.9.

`CC(=O)Nc1nnc(S(N)(=O)=O)s1` [acetazolamide, reference compound]: the pHi with CCRF-CEM cells stood at 7.34; with HCT116 cells (HCT116, 50 μM acetazolamide, 24 hour incubation, control 7.516) it was 7.47. Besides, the “intracellular acidification in HCT116 cells” value with HCT116 cells (carboranes 1 μM versus acetazolamide 50 μM) is “mild intracellular acidification”.
